# Reference: ChEMBL document CHEMBL3885881, “DrugMatrix”
# Species on record: Rattus norvegicus
# Assay: DrugMatrix - Regimen: Daily Repeat
# Assay type: toxicity, organism-based, Sprague-Dawley
# Design: regimen Daily Repeat, gender Male, age 6-8 weeks
# Details: in vivo, sc, route subcutaneous, […]; for ABSOLUTE BASOPHIL / ABSOLUTE EOSINOPHIL / ABSOLUTE LYMPHOCYTE / ABSOLUTE MONOCYTE / ABSOLUTE SEGMENTED NEUTROPHIL / BASOPHIL / EOSINOPHIL / ERYTHROCYTE COUNT / HEMATOCRIT / HEMOGLOBIN / LEUKOCYTE COUNT / LYMPHOCYTE / MEAN CORPUSCULAR HEMOGLOBIN / MEAN CORPUSCULAR VOLUME / MONOCYTE / NEUTROPHIL / NUCLEATED RED BLOOD CELLS / PLATELET COUNT: tissue Blood; for ALANINE AMINOTRANSFERASE / ALBUMIN / ALKALINE PHOSPHATASE / ASPARTATE AMINOTRANSFERASE / BLOOD UREA NITROGEN / CARBON DIOXIDE / CHLORIDE / CHOLESTEROL / CREATINE PHOSPHOKINASE / CREATININE / GLUCOSE / LACTATE DEHYDROGENASE / LIPASE / PHOSPHORUS / POTASSIUM / SODIUM / TOTAL BILIRUBIN / TOTAL PROTEIN / URIC ACID: tissue Plasma
# [1] = 0 mg/kg, 72 h, dose level Control, time 3 day
# [2] = 0 mg/kg, 120 h, dose level Control, time 5 day
# [3] = 50 mg/kg, 72 h, dose level Low, time 3 day
compound,measurement,setting,value
CCCCCCCCc1ccc(O)cc1 [4-OCTYLPHENOL],ABSOLUTE BASOPHIL,[1],0 CELLS/uL
same,ABSOLUTE EOSINOPHIL,[1],0 CELLS/uL
same,ABSOLUTE LYMPHOCYTE,[1],9782.33 CELLS/uL
same,ABSOLUTE MONOCYTE,[1],114.67 CELLS/uL
same,ABSOLUTE SEGMENTED NEUTROPHIL,[1],753 CELLS/uL
same,BASOPHIL,[1],0%
same,EOSINOPHIL,[1],0%
same,ERYTHROCYTE COUNT,[1],5.14 x10E6/uL
same,HEMATOCRIT,[1],32.12%
same,HEMOGLOBIN,[1],13.13 G/DL
same,LEUKOCYTE COUNT,[1],10.65 x10E3/uL
same,LYMPHOCYTE,[1],91.83%
same,MEAN CORPUSCULAR HEMOGLOBIN,[1],25.83 pg
same,MEAN CORPUSCULAR VOLUME,[1],62.43 fL
same,MONOCYTE,[1],1%
same,NEUTROPHIL,[1],7.17%
same,NUCLEATED RED BLOOD CELLS,[1],0.17 /100WBC
same,PLATELET COUNT,[1],657.83 x10E3/uL
same,ALANINE AMINOTRANSFERASE,[1],60.33 u/L
same,ALBUMIN,[1],3.83 G/DL
same,ALKALINE PHOSPHATASE,[1],366.33 u/L
same,ASPARTATE AMINOTRANSFERASE,[1],104.5 u/L
same,BLOOD UREA NITROGEN,[1],12.33 mg/dL
same,CARBON DIOXIDE,[1],23.17 mmol/L
same,CHLORIDE,[1],96.67 MEQ/L
same,CHOLESTEROL,[1],73.17 mg/dL
same,CREATINE PHOSPHOKINASE,[1],545.83 u/L
same,CREATININE,[1],0.26 mg/dL
same,GLUCOSE,[1],144.33 mg/dL
same,LACTATE DEHYDROGENASE,[1],147.5 u/L
same,LIPASE,[1],9.33 u/L
same,PHOSPHORUS,[1],10.83 mg/dL
same,POTASSIUM,[1],5.68 MEQ/L
same,SODIUM,[1],138.83 MEQ/L
same,TOTAL BILIRUBIN,[1],0.17 mg/dL
same,TOTAL PROTEIN,[1],5.42 G/DL
same,URIC ACID,[1],0.65 mg/dL
same,ABSOLUTE BASOPHIL,[2],0 CELLS/uL
same,ABSOLUTE EOSINOPHIL,[2],43.33 CELLS/uL
same,ABSOLUTE LYMPHOCYTE,[2],12883 CELLS/uL
same,ABSOLUTE MONOCYTE,[2],166.83 CELLS/uL
same,ABSOLUTE SEGMENTED NEUTROPHIL,[2],1290.17 CELLS/uL
same,BASOPHIL,[2],0%
same,EOSINOPHIL,[2],0.33%
same,ERYTHROCYTE COUNT,[2],5.79 x10E6/uL
same,HEMATOCRIT,[2],36.37%
same,HEMOGLOBIN,[2],14.17 G/DL
same,LEUKOCYTE COUNT,[2],14.38 x10E3/uL
same,LYMPHOCYTE,[2],89.17%
same,MEAN CORPUSCULAR HEMOGLOBIN,[2],24.48 pg
same,MEAN CORPUSCULAR VOLUME,[2],62.83 fL
same,MONOCYTE,[2],1.17%
same,NEUTROPHIL,[2],9.33%
same,NUCLEATED RED BLOOD CELLS,[2],0.5 /100WBC
same,PLATELET COUNT,[2],1267.33 x10E3/uL
same,ALANINE AMINOTRANSFERASE,[2],53.5 u/L
same,ALBUMIN,[2],3.82 G/DL
same,ALKALINE PHOSPHATASE,[2],342.33 u/L
same,ASPARTATE AMINOTRANSFERASE,[2],83.67 u/L
same,BLOOD UREA NITROGEN,[2],13.17 mg/dL
same,CARBON DIOXIDE,[2],28.17 mmol/L
same,CHLORIDE,[2],101.5 MEQ/L
same,CHOLESTEROL,[2],70.83 mg/dL
same,CREATINE PHOSPHOKINASE,[2],656.67 u/L
same,CREATININE,[2],0.17 mg/dL
same,GLUCOSE,[2],171.33 mg/dL
same,LACTATE DEHYDROGENASE,[2],169 u/L
same,LIPASE,[2],9.17 u/L
same,PHOSPHORUS,[2],12.88 mg/dL
same,POTASSIUM,[2],6.54 MEQ/L
same,SODIUM,[2],141.2 MEQ/L
same,TOTAL BILIRUBIN,[2],0.18 mg/dL
same,TOTAL PROTEIN,[2],5.68 G/DL
same,URIC ACID,[2],2.02 mg/dL
same,ABSOLUTE BASOPHIL,[3],0 CELLS/uL
same,ABSOLUTE EOSINOPHIL,[3],58 CELLS/uL
same,ABSOLUTE LYMPHOCYTE,[3],8002.33 CELLS/uL
same,ABSOLUTE MONOCYTE,[3],124.67 CELLS/uL
same,ABSOLUTE SEGMENTED NEUTROPHIL,[3],648.33 CELLS/uL
same,BASOPHIL,[3],0%
same,EOSINOPHIL,[3],0.67%
same,ERYTHROCYTE COUNT,[3],5.33 x10E6/uL
same,HEMATOCRIT,[3],34.07%
same,HEMOGLOBIN,[3],13.23 G/DL
same,LEUKOCYTE COUNT,[3],8.83 x10E3/uL
same,LYMPHOCYTE,[3],90%
same,MEAN CORPUSCULAR HEMOGLOBIN,[3],24.83 pg
same,MEAN CORPUSCULAR VOLUME,[3],63.87 fL
same,MONOCYTE,[3],1.67%
same,NEUTROPHIL,[3],7.67%
same,NUCLEATED RED BLOOD CELLS,[3],0 /100WBC
same,PLATELET COUNT,[3],876 x10E3/uL
same,ALANINE AMINOTRANSFERASE,[3],50.33 u/L
same,ALBUMIN,[3],3.9 G/DL
same,ALKALINE PHOSPHATASE,[3],340 u/L
same,ASPARTATE AMINOTRANSFERASE,[3],88 u/L
same,BLOOD UREA NITROGEN,[3],10 mg/dL
same,CARBON DIOXIDE,[3],24.67 mmol/L
same,CHLORIDE,[3],94 MEQ/L
same,CHOLESTEROL,[3],67.33 mg/dL
same,CREATINE PHOSPHOKINASE,[3],672.33 u/L
same,CREATININE,[3],0.22 mg/dL
same,GLUCOSE,[3],130.67 mg/dL
same,LACTATE DEHYDROGENASE,[3],143.33 u/L
same,LIPASE,[3],9.67 u/L
same,PHOSPHORUS,[3],11.07 mg/dL
same,POTASSIUM,[3],6.18 MEQ/L
same,SODIUM,[3],136.97 MEQ/L
same,TOTAL BILIRUBIN,[3],0.1 mg/dL
same,TOTAL PROTEIN,[3],5.4 G/DL
same,URIC ACID,[3],0.83 mg/dL
